Measured values: ChEMBL document CHEMBL6103619, “Discovery of a Novel CRBN-Recruiting cGAS PROTAC Degrader for the Treatment of Ulcerative Colitis” (J Med Chem, 2025)
Activity calls are given as the source filed them. The rule behind the calls is not given here.

What was measured:
[1] = Cytotoxicity against mouse RAW-Lucia ISG cells assessed as reduction in cell viability at >30 uM incubated for 48 hrs by CCK8 assay; type: toxicity, cell-based
[2] = target: Protein cereblon/Cyclic GMP-AMP synthase (Mus musculus, UniProt Q8C6L5+Q8C7D2); assay: (§1) PROTAC activity at CRBN/cGAS in mouse RAW264.7 cells assessed as induction of cGAS degradation preincubated with compound for 40 hrs followed by HT-DNA stimulation and measured after 8 hrs by Western blot analysis; type: cell-based
[3] = target: Protein cereblon/Cyclic GMP-AMP synthase (Mus musculus) (UniProt Q8C6L5+Q8C7D2); assay: as §1; type: cell-based; conditions: time 48.0 hrs
THP-1 = assay: Downregulation of IFNB mRNA expression level in cGAMP-induced human THP-1 cells at 20 uM preincubated with compound for 12 hrs followed by cGAMP addition and measured after 8 hrs by RT-qPCR analysis; type: functional, cell-based; conditions: time 20.0 hrs
[4] = (§2) Inhibition of dsDNA-induced cGAS signaling pathway in mouse RAW-Lucia ISG cells preincubated with compound for 24 hrs followed by HT-DNA addition and measured after 24 hrs by QUANTI-Luc luciferase reagent based assay; type: cell-based
RAW-Lucia ISG = assay: as §2; type: cell-based; conditions: time 48.0 hrs
[5] = target: T1, Protein cereblon/Cyclic GMP-AMP synthase (Homo sapiens, UniProt Q96SW2+Q8N884); assay: PROTAC activity at CRBN/cGAS in human THP-1 cells assessed as induction of cGAS degradation at 10 uM preincubated with compound for 40 hrs followed by HT-DNA stimulation and measured after 8 hrs by Western blot analysis relative to control; type: cell-based; conditions: time 48.0 hrs
RAW264.7 [6] = assay: Downregulation of CXCL10 mRNA expression in mouse RAW264.7 cells preincubated with compound for 40 hrs followed by HT-DNA addition and measured after 8 hrs by qRT-PCR analysis; type: functional, cell-based; conditions: dose 2.5-20 µM, time 48.0 hrs
RAW264.7 [7] = assay: Downregulation of IFNB mRNA expression in mouse RAW264.7 cells preincubated with compound for 40 hrs followed by HT-DNA addition and measured after 8 hrs by qRT-PCR analysis; type: functional, cell-based; conditions: dose 2.5-20 µM, time 48.0 hrs
[8] = target: T1, Protein cereblon/Cyclic GMP-AMP synthase; assay: PROTAC activity at CRBN/cGAS in human THP-1 cells assessed as induction of cGAS degradation at 10 uM by Western blot analysis; type: cell-based; conditions: time 1-24 hrs
[9] = target: Cyclic GMP-AMP synthase (Homo sapiens) (UniProt Q8N884); assay: Inhibition of cGAMP-induced cGAS signaling pathway in human THP1-Lucia ISG cells at 0.2 to 20 uM preincubated with compound for 2 hrs followed by cGAMP addition and measured after 24 hrs by QUANTI-Luc luciferase reagent based assay; type: cell-based; conditions: dose 0.2-20 µM, time 26.0 hrs
Chain of Cyclic GMP-AMP synthase (Homo sapiens) (Q8N884 whole entry): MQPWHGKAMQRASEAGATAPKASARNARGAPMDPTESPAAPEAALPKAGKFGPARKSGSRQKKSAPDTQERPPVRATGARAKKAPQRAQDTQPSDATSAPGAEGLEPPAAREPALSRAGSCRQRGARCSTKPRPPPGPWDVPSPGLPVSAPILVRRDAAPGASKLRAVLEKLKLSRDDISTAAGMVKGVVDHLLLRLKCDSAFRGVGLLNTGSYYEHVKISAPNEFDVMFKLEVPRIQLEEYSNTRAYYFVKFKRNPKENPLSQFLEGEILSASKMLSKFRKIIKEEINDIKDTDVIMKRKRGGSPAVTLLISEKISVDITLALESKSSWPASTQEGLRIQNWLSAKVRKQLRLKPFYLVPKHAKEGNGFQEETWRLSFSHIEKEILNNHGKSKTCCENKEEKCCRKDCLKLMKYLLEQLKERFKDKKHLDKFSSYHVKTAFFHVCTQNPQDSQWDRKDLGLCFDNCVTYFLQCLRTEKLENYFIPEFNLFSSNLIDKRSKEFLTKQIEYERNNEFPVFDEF

T1 sequence (Q8N884 whole entry, looked up): as the sequence (Q8N884 whole entry) above
T1 sequence (Q96SW2 whole entry, looked up): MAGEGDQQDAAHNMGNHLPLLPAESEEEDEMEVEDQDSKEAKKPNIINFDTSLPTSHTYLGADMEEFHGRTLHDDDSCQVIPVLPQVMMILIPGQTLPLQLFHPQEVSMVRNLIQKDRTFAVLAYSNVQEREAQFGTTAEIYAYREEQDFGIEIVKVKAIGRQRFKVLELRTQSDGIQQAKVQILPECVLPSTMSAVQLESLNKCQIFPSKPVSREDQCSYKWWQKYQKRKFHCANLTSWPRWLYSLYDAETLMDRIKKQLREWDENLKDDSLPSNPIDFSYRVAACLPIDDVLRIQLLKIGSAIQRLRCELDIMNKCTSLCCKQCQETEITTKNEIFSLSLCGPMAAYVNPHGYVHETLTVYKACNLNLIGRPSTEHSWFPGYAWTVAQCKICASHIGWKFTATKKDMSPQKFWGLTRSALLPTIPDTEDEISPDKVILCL
Chain of Protein cereblon/Cyclic GMP-AMP synthase (Mus musculus, UniProt Q8C6L5+Q8C7D2) (Q8C6L5 whole entry): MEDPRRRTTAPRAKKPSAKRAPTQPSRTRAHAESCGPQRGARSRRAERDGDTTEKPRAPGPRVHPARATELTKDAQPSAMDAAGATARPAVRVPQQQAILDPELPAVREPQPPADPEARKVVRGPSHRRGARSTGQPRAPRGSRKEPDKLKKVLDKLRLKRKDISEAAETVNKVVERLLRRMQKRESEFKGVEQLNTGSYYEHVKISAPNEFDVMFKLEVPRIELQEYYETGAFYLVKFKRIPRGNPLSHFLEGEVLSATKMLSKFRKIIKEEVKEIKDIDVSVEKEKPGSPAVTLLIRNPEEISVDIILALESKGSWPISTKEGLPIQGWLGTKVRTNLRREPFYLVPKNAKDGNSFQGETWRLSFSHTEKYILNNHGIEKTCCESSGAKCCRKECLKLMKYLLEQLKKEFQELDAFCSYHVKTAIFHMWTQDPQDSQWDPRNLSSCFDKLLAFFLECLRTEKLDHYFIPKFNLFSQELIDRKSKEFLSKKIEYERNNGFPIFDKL
Chain of Protein cereblon/Cyclic GMP-AMP synthase (Mus musculus, UniProt Q8C6L5+Q8C7D2) (Q8C7D2 whole entry): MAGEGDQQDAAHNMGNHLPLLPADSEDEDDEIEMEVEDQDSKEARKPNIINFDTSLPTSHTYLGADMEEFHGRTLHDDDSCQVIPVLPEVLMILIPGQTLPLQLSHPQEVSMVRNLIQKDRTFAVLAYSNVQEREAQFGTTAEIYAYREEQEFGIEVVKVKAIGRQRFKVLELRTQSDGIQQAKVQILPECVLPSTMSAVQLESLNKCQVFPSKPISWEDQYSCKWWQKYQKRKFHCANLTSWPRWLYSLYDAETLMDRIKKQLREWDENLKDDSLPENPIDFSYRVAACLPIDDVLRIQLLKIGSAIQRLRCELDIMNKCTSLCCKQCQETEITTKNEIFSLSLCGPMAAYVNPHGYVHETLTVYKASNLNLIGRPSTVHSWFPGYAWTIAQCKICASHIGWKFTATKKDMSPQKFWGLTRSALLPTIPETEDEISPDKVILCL
Chain of Protein cereblon/Cyclic GMP-AMP synthase (Mus musculus) (Q8C6L5 whole entry, looked up): as the sequence (Q8C6L5 whole entry) above
Chain of Protein cereblon/Cyclic GMP-AMP synthase (Mus musculus) (Q8C7D2 whole entry, looked up): as the sequence (Q8C7D2 whole entry) above

Cn1ccc(-c2cc(Cl)c(Cl)c3[nH]c4c(c23)CN(C(=O)CNC(=O)CCCC#Cc2cccc3c2CN(C2CCC(=O)NC2=O)C3=O)CC4)n1 (stereo unspecified)
Activity [1]: Toxic
DC50 [2]: 4.6 µM
Activity [3]: Dose-dependent-effect
Activity (THP-1): inactive
IC50 [4]: 4.8 µM
inhibition (RAW-Lucia ISG): Dose-dependent-effect
Activity [5]: 78.9%
Activity (RAW264.7 [6]): Dose-dependent-effect
Activity (RAW264.7 [7]): Dose-dependent-effect
Activity [8]: Time-dependent-effect
inhibition [9]: inactive
